Literature values, collected in patent publication US20220117915A1, “METHODS OF TREATING ACUTE STRESS DISORDER AND POSTTRAUMATIC STRESS DISORDER” (Tonix Pharma Holdings Limited, priority 2018, published 2022).

Key:
[1] = ASD or very early PTSD
[2] = biological target: serotonergic-2A (5-HT2A) receptor (Homo sapiens, UniProt P28223)
[3] = biological target: alpha-adrenergic-1A (α1A) receptor (Homo sapiens, UniProt P35348)
alpha-adrenergic-1A (α1A) receptor, sequence (P35348 whole entry): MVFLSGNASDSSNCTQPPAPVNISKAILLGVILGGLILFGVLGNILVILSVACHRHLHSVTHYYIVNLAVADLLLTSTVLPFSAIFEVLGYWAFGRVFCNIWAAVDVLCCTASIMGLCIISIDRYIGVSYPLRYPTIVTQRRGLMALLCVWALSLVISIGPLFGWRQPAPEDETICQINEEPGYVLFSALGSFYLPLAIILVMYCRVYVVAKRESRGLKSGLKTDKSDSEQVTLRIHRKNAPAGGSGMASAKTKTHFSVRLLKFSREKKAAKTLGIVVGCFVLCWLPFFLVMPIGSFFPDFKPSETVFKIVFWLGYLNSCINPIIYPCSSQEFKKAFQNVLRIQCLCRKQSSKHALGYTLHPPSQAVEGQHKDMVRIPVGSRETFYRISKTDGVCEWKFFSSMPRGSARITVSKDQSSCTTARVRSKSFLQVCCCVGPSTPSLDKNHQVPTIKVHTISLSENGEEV

serotonergic-2A (5-HT2A) receptor, sequence (P28223 whole entry, species assumed): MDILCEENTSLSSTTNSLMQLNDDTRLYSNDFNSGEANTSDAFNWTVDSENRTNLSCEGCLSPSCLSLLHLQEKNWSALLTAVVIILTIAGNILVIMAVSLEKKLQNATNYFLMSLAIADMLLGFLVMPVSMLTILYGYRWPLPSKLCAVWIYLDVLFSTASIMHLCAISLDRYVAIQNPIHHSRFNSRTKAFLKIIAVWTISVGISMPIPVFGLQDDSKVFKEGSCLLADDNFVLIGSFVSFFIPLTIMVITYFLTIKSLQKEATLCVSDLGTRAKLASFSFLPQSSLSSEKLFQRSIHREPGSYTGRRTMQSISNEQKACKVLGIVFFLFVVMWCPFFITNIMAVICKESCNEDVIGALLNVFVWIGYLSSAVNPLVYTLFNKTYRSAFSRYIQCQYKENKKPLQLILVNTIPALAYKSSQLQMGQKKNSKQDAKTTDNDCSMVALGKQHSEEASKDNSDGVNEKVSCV

In the case of `CN(C)CCC[C@@]1(c2ccc(F)cc2)OCc2cc(C#N)ccc21` [escitalopram], the “preventing development of PTSD versus placebo” value [1] is listed as “failed to perform any better than the placebo”.

In the case of `CN(C)CCC=C1c2ccccc2C=Cc2ccccc21` [Cyclobenzaprine, 3-(5H-dibenzola[a,d]cyclohepten-5-ylidene)-N,N-dimethyl-1 propanamine], the “5-HT2A receptor antagonist activity” value [2] is listed as “potent” and the “α1A receptor antagonist activity” value [3] is listed as “potent”.

In the case of `Fc1ccc([C@@H]2CCNC[C@H]2COc2ccc3c(c2)OCO3)cc1` [paroxetine], the “efficacy as a PTSD treatment” value (long-standing PTSD, average of 15 years since the trauma) is given as “offered patients with long-standing PTSD relief” and the “improvement by time since trauma” value (trauma more than 5 years prior to treatment versus more recent trauma) is given as “greater improvement”.
